Data from patent US20190223483A1, “SENSORY MODIFIER COMPOUNDS” (CARGILL, INCORPORATED, priority 2017, published 2019).

Assay: Roundtable assessment of astringency
Type: in vivo
Settings: RebM 700 ppm, modifier between 0 ppm and about 500 ppm
Method: For other sweetness attributes, the solutions were tested by a panel of at least four individuals that are highly-trained in tasting steviol glycoside solutions. The highly-trained panelists used a roundtable methodology to assess each sweetness attribute. To test each solution, the highly-trained panelists dispensed approximately 2 mL of each solution into their own mouths by transfer pipet, dispersed the solution by moving their tongues, and recorded a value for the particular sweetness attribute being tested. Between tasting solutions, the panelists were able to cleanse their palates with water. For each sweetness attribute, the panelist agreed on a descriptive scale with relative intensities assigned for each sweetness attribute and then recorded the values for each sweetness attribute against this. For example, this roundtable assessment of sweetness linger assigned a scale of 0 to 6 with a score of 0 indicating no sweetness linger and a score of 6 indicating extreme sweetness linger. Roundtable assessment of sweetness linger assigned a scale of 0 to 6 with a score of 0 indicating no sweetness linger and a score of 6 indicating extreme sweetness linger (0=none, 1=trace, 2=slight, 3=moderate, 4=definite, 5=strong, 6=extreme). Roundtable assessment of rounded assigned a scale of 0 to 3 with a score of 0 indicating spikey and a score of 3 indicating desirable rounded (0=none, 1=mostly spikey, some rounded, 2=mostly rounded, some spikey, 3=rounded). Roundtable assessment of mouthfeel assigned a scale of 0 to 2 with a score of 0 indicating water and a score of 2 indicating syrupy (0=water, 1=sucrosey, 2=syrupy). Roundtable assessment of bitterness assigned a scale of 0 to 6 with a score of 0 indicating no bitterness and a score of 6 indicating extreme sweetness linger (0=none, 1=trace, 2=slight, 3=moderate, 4=definite, 5=strong, 6=extreme). Roundtable assessment of off tastes assigned a scale of 0 to 6 with a score of 0 indicating no bitterness and a score of 6 indicating extreme off tastes (0=none, 1=trace, 2=slight, 3=moderate, 4=definite, 5=strong, 6=extreme).
Roundtable assessment of botanical notes assigned a scale of 0 to 5 with a score of 0 indicating no botanical notes and a score of 5 indicating strong (0=none, 1=trace, 2=slight, 3=moderate, 4=definite, 5=strong).
Solutions of steviol glycosides and sensory modifier compound were prepared at increasing ratios of sensory modifier to steviol glycoside by weight. […] The concentration of steviol glycosides was 700 ppm in each solution. The solutions were tested for astringency.

For `O=C(/C=C/c1ccc(O)c(O)c1)O[C@@H](C(=O)O)[C@@H](OC(=O)/C=C/c1ccc(O)c(O)c1)C(=O)O` [tartaric backbone (cichoric acid), cichoric acid], the Astringency was “imperceptible”.
